# Experimental data from patent US8143408B2, “N-(8-heteroaryltetrahydronaphtalene-2yl) or N-(5-heteroarylchromane-3-yl) carboxamide derivatives for the treatment of pain” (AstraZeneca AB, priority 2007, dated 2012).
# Target: T1, Nav1.7 voltage-gated sodium channel (Homo sapiens, UniProt Q15858)
# T1 construct: Gene(s) encoding the full-length protein of the voltage-gated sodium channel of interest are cloned and expressed; expressed in transfected cells
# Test: Whole-cell voltage clamp electrophysiology assay
# Type: cell-based
# Conditions: cells stably expressing the voltage-gated sodium channel of interest
# How it was run: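 Cells expressing full-length channel, exposed to drug by integrated pipetting on automated patch-clamp platforms or by microperfusion in conventional whole-cell patch clamp. Channels activated by a voltage protocol depolarising from a defined holding potential; buffers per platform manufacturer.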
# T1 sequence (Q15858 whole entry): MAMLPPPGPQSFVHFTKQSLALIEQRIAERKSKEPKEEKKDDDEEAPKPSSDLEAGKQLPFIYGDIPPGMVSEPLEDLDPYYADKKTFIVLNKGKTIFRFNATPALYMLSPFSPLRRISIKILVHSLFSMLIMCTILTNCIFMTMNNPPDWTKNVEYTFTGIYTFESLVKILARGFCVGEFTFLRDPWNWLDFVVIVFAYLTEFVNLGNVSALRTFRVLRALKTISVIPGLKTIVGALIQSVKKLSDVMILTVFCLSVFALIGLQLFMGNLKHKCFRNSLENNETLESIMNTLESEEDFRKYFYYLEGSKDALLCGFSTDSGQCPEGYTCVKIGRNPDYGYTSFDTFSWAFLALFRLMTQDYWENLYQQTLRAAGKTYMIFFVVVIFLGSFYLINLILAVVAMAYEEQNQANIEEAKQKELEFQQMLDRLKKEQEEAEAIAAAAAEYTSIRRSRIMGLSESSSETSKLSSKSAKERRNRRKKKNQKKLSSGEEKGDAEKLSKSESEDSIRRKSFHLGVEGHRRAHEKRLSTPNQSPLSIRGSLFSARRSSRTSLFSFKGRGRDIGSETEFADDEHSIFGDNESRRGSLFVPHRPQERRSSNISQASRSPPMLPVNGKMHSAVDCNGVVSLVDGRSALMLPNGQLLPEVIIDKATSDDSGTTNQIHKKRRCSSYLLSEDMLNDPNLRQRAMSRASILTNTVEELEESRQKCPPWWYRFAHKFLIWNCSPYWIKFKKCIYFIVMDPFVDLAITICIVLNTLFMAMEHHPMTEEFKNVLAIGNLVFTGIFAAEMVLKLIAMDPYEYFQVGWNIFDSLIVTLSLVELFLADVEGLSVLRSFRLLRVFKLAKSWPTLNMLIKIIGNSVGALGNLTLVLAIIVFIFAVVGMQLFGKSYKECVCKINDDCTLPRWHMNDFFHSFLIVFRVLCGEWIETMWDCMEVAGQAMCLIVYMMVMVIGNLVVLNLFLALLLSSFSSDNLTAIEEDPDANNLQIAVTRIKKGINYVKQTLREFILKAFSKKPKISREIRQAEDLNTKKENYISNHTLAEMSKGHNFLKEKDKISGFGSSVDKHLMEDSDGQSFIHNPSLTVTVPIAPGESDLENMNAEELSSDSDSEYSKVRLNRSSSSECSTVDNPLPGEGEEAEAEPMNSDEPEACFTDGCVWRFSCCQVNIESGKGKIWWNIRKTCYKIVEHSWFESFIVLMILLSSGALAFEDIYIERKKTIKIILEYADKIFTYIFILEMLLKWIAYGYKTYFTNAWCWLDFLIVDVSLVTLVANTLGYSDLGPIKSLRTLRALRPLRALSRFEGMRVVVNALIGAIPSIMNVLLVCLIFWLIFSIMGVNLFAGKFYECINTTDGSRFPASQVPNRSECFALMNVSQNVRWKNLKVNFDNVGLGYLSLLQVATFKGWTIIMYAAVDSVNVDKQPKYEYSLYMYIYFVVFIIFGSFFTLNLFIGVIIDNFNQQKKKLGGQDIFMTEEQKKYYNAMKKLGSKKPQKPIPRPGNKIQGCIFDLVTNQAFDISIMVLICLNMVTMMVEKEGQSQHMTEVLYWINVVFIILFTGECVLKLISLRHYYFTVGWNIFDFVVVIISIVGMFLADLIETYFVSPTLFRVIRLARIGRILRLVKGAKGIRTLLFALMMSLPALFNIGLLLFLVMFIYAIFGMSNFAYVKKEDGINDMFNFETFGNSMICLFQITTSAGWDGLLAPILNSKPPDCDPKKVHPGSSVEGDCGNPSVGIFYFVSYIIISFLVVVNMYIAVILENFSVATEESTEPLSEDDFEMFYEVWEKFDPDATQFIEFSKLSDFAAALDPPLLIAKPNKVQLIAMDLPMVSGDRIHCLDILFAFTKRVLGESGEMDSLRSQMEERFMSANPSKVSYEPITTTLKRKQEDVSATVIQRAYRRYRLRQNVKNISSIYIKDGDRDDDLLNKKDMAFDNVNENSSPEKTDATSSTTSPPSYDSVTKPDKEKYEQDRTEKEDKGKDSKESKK
row,Compound,IC50 [nM]
1,"O=C(N[C@@H]1COc2cccc(-c3cnc(C4CC4)nc3)c2C1)c1ccc(C(=O)NCCC(F)(F)F)nc1 [Example 197, N^5-[(3S)-5-(2-cyclopropylpyrimidin-5-yl)-3,4-dihydro-2H-chromen-3-yl]-N^2-(3,3,3-trifluoropropyl)pyridine-2,5-dicarboxamide]",158
2,"CN(CCC(F)(F)F)C(=O)c1ccc(C(=O)N[C@@H]2COc3cccc(-c4cnc(C5CC5)nc4)c3C2)cn1 [Example 198, N^5-[(3S)-5-(2-cyclopropylpyrimidin-5-yl)-3,4-dihydro-2H-chromen-3-yl]-N^2-methyl-N^2-(3,3,3-trifluoropropyl)pyridine-2,5-dicarboxamide]",501
3,"O=C(N[C@@H]1COc2cccc(-c3cnc(C4CC4)nc3)c2C1)c1ccn(CCC(F)(F)F)c(=O)c1 [Example 199, N-[(3S)-5-(2-cyclopropylpyrimidin-5-yl)-3,4-dihydro-2H-chromen-3-yl]-2-oxo-1-(3,3,3-trifluoropropyl)-1,2-dihydropyridine-4-carboxamide]",501
4,"COc1ncc(-c2cccc3c2C[C@H](NC(=O)c2cnc(NCCC(F)(F)F)nc2)CO3)cc1F [Example 200, N-[(3S)-5-(5-fluoro-6-methoxypyridin-3-yl)-3,4-dihydro-2H-chromen-3-yl]-2-[(3,3,3-trifluoropropyl)amino]pyrimidine-5-carboxamide]",316
5,"Cc1ncc(-c2cccc3c2C[C@H](NC(=O)c2cnc(NCCC(F)(F)F)nc2)CO3)cn1 [Example 201, N-[(3S)-5-(2-methylpyrimidin-5-yl)-3,4-dihydro-2H-chromen-3-yl]-2-[(3,3,3-trifluoropropyl)amino]pyrimidine-5-carboxamide]",398
6,"Cc1cnc(-c2cccc3c2C[C@H](NC(=O)c2ccc(OCCOCC(F)(F)F)nc2)CO3)c(C)n1 [Example 202, N-[(3S)-5-(3,5-dimethylpyrazin-2-yl)-3,4-dihydro-2H-chromen-3-yl]-6-[2-(2,2,2-trifluoroethoxy)ethoxy]nicotinamide]",794
7,"Cc1ncc(-c2cccc3c2C[C@H](NC(=O)c2ccc(COCC(F)(F)F)nc2)CO3)cn1 [Example 203, N-[(3S)-5-(2-methylpyrimidin-5-yl)-3,4-dihydro-2H-chromen-3-yl]-6-[(2,2,2-trifluoroethoxy)methyl]nicotinamide]",200
8,"COc1ncc(-c2cccc3c2C[C@H](NC(=O)c2ccc(OC4CCOCC4)nc2)CO3)cc1C(=O)N(C)C [Example 204, 2-methoxy-N,N-dimethyl-5-[(3S)-3-({[6-(tetrahydro-2H-pyran-4-yloxy)pyridin-3-yl]carbonyl}amino)-3,4-dihydro-2H-chromen-5-yl]nicotinamide]",7940
9,"CNC(=O)c1cc(-c2cccc3c2C[C@H](NC(=O)c2ccc(OC(C)C)nc2)CO3)cnc1OC [Example 205, 5-[(3S)-3-{[(6-isopropoxypyridin-3-yl)carbonyl]amino}-3,4-dihydro-2H-chromen-5-yl]-2-methoxy-N-methylnicotinamide]",1260
10,"CNC(=O)c1cc(-c2cccc3c2C[C@H](NC(=O)c2ccc(OC4CCOCC4)nc2)CO3)cnc1OC [Example 206, 2-methoxy-N-methyl-5-[(3S)-3-({[6-(tetrahydro-2H-pyran-4-yloxy)pyridin-3-yl]carbonyl}amino)-3,4-dihydro-2H-chromen-5-yl]nicotinamide]",3160
11,"COc1ncc(-c2cccc3c2C[C@H](NC(=O)c2ccc(OC(C)C)nc2)CO3)cc1C(=O)N(C)C [Example 207, 5-[(3S)-3-{[(6-isopropoxypyridin-3-yl)carbonyl]amino}-3,4-dihydro-2H-chromen-5-yl]-2-methoxy-N,N-dimethylnicotinamide]",3980
12,"COc1ncc(-c2cccc3c2C[C@H](NC(=O)c2ccc(OCC(F)(F)F)nc2)CO3)cc1C(=O)N(C)C [Example 208, 2-methoxy-N,N-dimethyl-5-[(3S)-3-({[6-(2,2,2-trifluoroethoxy)pyridin-3-yl]carbonyl}amino)-3,4-dihydro-2H-chromen-5-yl]nicotinamide]",1580
13,"CN(C)C(=O)c1ncc(-c2cccc3c2C[C@H](NC(=O)c2ccc(OCCOCC(F)(F)F)nc2)CO3)cn1 [Example 209, N,N-dimethyl-5-{(3S)-3-[({6-[2-(2,2,2-trifluoroethoxy)ethoxy]pyridin-3-yl}carbonyl)amino]-3,4-dihydro-2H-chromen-5-yl}pyrimidine-2-carboxamide]",7940
14,"O=C(N[C@@H]1COc2cccc(-c3ccc(CO)nc3)c2C1)c1ccc(OCCOCC(F)(F)F)nc1 [Example 210, N-{(3S)-5-[6-(hydroxymethyl)pyridin-3-yl]-3,4-dihydro-2H-chromen-3-yl}-6-[2-(2,2,2-trifluoroethoxy)ethoxy]nicotinamide]",100
15,"O=C(N[C@@H]1COc2cccc(-c3ccc(CO)nc3)c2C1)c1ccc(OCCCF)nc1 [Example 211, 6-(3-fluoropropoxy)-N-{(3S)-5-[6-(hydroxymethyl)pyridin-3-yl]-3,4-dihydro-2H-chromen-3-yl}nicotinamide]",200
16,"O=C(N[C@@H]1COc2cccc(-c3ccc(CO)nc3)c2C1)c1ccc(OCC(F)(F)F)nc1 [Example 212, N-{(3S)-5-[6-(hydroxymethyl)pyridin-3-yl]-3,4-dihydro-2H-chromen-3-yl}-6-(2,2,2-trifluoroethoxy)nicotinamide]",100
17,"O=C(N[C@@H]1COc2cccc(-c3cnc(CO)cn3)c2C1)c1ccc(OCCOCC(F)(F)F)nc1 [Example 213, N-{(3S)-5-[5-(hydroxymethyl)pyrazin-2-yl]-3,4-dihydro-2H-chromen-3-yl}-6-[2-(2,2,2-trifluoroethoxy)ethoxy]nicotinamide]",316
